Source: patent publication US11766468B2, “Method of treating prostate cancer with GnRH antagonist” (priority 2012, dated 2023)
Marks after values point to notes of the source that are not given here.

Experiment: CS21 safety: treatment-emergent adverse events (MedDRA SOC/PT), crude incidence, also by subgroup
Assay type: in vivo
Conditions: for Musculoskeletal and connective tissue disorders, % of patients: pooled degarelix
Protocol: The safety variables for this study were assessed on the following: the frequency and severity of adverse events (AEs); the presence of clinically significant changes in laboratory parameters (clinical chemistry, hematology and urinalysis); changes in electrocardiograms (ECGs) and vital signs; changes detected by physical examination; and body weight.
An AE was therefore any unfavorable or unintended sign (including an abnormal laboratory finding), symptom or disease temporally associated with the use of the product, whether or not related to the IMP.
An adverse drug reaction (ADR) was defined as an AE evaluated by the investigator as being probably or possibly related to treatment with the IMP.
AEs were graded according to the National Cancer Institute (NCI) Common Terminology Criteria for Adverse Events (CTCAE). In accordance with the CTCAE criteria, AEs were rated on a five-point scale corresponding to mild, moderate, severe, life-threatening or disabling and death. For those AEs not described in the CTCAE, a separate five-point rating scale was used for rating of the intensity of AEs as follows below:
Safety parameters were evaluated for all patients included in the ITT analysis set, comprising all 610 randomized patients who received at least one dose of study medication. All safety tables include four columns: the three treatment groups described separately, and the pooled degarelix group.
Adverse events were regarded as ‘treatment-emergent’ if they occurred in the time interval from initial dosing to end-of-study. Adverse events were considered ‘pre-treatment’ if they occurred between screening and the initial injections of IMP. As described above, all AEs were classified according to MedDRA (version 10.0) system organ class (SOC), sorted alphabetically, and by preferred term (PT), in decreasing frequency of occurrence. Treatment-emergent AEs were expressed in terms of intensity (using NCI CTCAE) and relationship to study drug.
Using the results from the summary of clinical efficacy (SCE) and summary of clinical safety (SCS) findings, different patient subgroups were analyzed. Subgroup distinguishers included race (white, black, and other), age (<65 years, […], and >75 years), weight (<70 kg, ≥70−<90 kg, and ≥90 kg), body mass index (BMI) (≤20, >20 to 30, and >30 kg/m^2)), region (North-America, Western Europe, Central and Eastern Europe and Other), and stage of prostate cancer (e.g., localized, locally advanced, and metastatic).

[1] = degarelix Total (pooled), leuprolide 7.5 mg
[2] = degarelix Total (pooled), leuprolide 7.5 mg, listed as leuprolide

With `CCNC(=O)[C@@H]1CCCN1C(=O)[C@H](CCCNC(=N)N)NC(=O)[C@H](CC(C)C)NC(=O)[C@@H](CC(C)C)NC(=O)[C@H](Cc1ccc(O)cc1)NC(=O)[C@H](CO)NC(=O)[C@H](Cc1c[nH]c2ccccc12)NC(=O)[C@H](Cc1c[nH]cn1)NC(=O)[C@@H]1CCC(=O)N1` [Leuprolide, leuprolide, reference compound] the “Musculoskeletal and connective tissue disorders, % of patients” value (Age <65) was “(34%)**”, the “Musculoskeletal and connective tissue disorders, % of patients” value (PCA = Localised) was “(25%)” and the “Musculoskeletal and connective tissue disorders, % of patients” value (PCA = Locally advanced) was “(19%)”. For the same compound, the “Musculoskeletal and connective tissue disorders, % of patients” value (PCA = Metastatic) was “(36%)”, the “Musculoskeletal and connective tissue disorders, % of patients” value (Race = White) was “(26%)**” and the “Musculoskeletal and connective tissue disorders, % of patients” value (Weight <70 kg) was “(36%)*”. The “Musculoskeletal and connective tissue disorders, % of patients” value (Weight >=90 kg) was “(32%)*”, the “Deaths (Grade 5), % of patients” value [1] was 4% and the “Deaths (Grade 5), E events” value [1] was 10. The “Deaths (Grade 5), N patients” value [1] was 9, the “Infections & infestations, % of patients” value [1] was “(24%)” and the “Musculoskeletal & connective tissue disorders, % of patients” value [1] was “(26%)”. For the same compound, the “Skin & subcutaneous tissue disorders, % of patients” value [1] was “( 5%)”, the “Urinary tract infection, % of patients” value [1] was “( 9%)” and the “Infections & infestations, % of patients” value [2] was 24%. For the same compound, the “Musculoskeletal & connective tissue disorders, % of patients” value [2] was 26%, the “Urinary tract infection, % of patients” value [2] was 9% and the “Atrioventricular block first degree, % of patients” value (in vivo) was “(6%)*”. For the same compound, the “Bronchitis, % of patients” value (in vivo) was “( 8%)*”, the “Chest pain, % of patients” value (in vivo) was “( 3%)*” and the “Cystitis noninfective, % of patients” value (in vivo) was “(2%)*”. The “Deep vein thrombosis, % of patients” value (in vivo) was “(2%)*”, the “Depression, % of patients” value (in vivo) was “(6%)*” and the “Diarrhoea, % of patients” value (in vivo) was “(8%)*”. For the same compound, the “Dyspnoea, % of patients” value (in vivo) was “(6%)*”, the “Excoriation, % of patients” value (in vivo) was “( 4%)” and the “Fall, % of patients” value (in vivo) was “( 2%)”. For the same compound, the “Gynaecomastia, % of patients” value (in vivo) was “(3%)”, the “Injury, poisoning and procedural complications, % of patients” value (in vivo) was “(12%)**” and the “Investigations, % of patients” value (in vivo) was “(30%)”. The “Libido decreased, % of patients” value (in vivo) was “(3%)”, the “Musculoskeletal stiffness, % of patients” value (in vivo) was “(2%)*” and the “Myocardial ischaemia, % of patients” value (in vivo) was “( 3%)*”. For the same compound, the “Nervous system disorders, % of patients” value (in vivo) was “(10%)”, the “Orthostatic hypotension, % of patients” value (in vivo) was “(2%)*” and the “Pain in extremity, % of patients” value (in vivo) was “( 9%)”. For the same compound, the “Pelvic pain, % of patients” value (in vivo) was “(8%)*”, the “Psychiatric disorders, % of patients” value (in vivo) was “(14%)” and the “Respiratory, thoracic and mediastinal disorders, % of patients” value (in vivo) was “(10%)”. The “Syncope, % of patients” value (in vivo) was “(2%)*” and the “Vascular disorders, % of patients” value (in vivo) was “(30%)”.
